Experimental data reported in patent US9737542B2, “Pyrrolotriazine kinase inhibitors” (BRISTOL-MYERS SQUIBB COMPANY, priority 2013, dated 2017).

target: GST-Xa-hAAK1 (Homo sapiens (Human), UniProt Q2M2I8); assay: AAK1 Kinase Assay; type: biochemical; settings: ATP 22 μM; 3 hours at room temperature
Sequence (Q2M2I8 whole entry): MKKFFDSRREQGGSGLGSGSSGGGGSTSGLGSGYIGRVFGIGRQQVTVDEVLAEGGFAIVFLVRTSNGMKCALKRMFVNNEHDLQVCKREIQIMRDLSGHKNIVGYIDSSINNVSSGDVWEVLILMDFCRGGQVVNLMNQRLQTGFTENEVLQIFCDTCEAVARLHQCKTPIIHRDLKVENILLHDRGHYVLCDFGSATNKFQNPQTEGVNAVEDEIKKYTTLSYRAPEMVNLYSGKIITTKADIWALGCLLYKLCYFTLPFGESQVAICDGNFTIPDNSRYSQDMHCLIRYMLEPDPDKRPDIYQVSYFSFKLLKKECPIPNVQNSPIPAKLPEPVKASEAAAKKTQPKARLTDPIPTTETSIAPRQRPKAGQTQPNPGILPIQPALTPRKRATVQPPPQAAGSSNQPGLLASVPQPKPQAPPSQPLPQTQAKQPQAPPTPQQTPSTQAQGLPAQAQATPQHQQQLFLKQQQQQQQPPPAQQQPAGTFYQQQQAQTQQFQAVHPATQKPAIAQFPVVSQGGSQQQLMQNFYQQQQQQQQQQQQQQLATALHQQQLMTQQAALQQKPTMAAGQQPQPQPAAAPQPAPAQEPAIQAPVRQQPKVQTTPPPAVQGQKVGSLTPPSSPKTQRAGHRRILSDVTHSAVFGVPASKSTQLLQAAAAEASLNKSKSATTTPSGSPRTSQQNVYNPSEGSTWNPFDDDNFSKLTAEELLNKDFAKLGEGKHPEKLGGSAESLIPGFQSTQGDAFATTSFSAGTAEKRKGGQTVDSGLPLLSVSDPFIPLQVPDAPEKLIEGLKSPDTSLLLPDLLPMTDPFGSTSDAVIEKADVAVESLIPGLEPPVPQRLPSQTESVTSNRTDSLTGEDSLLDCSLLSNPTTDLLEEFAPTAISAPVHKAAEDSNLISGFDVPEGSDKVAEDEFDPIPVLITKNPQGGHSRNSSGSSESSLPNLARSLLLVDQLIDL

IC50 [nM]	SMILES
2580	CC(C)n1nnc(-c2cccc(NCc3ccn4ncnc(Nc5cccc(-c6nnn(C(C)C)n6)c5)c34)c2)n1 [Example 61, N-(3-(2-isopropyl-2H-tetrazol-5-yl)phenyl)-5-(((3-(2-isopropyl-2H-tetrazol-5-yl)phenyl)amino)methyl)pyrrolo[2,1-f][1,2,4]triazin-4-amine]
72	CC(C)n1nnc(-c2cccc(Nc3ncnn4ccc(CN5CCC(C#N)CC5)c34)c2)n1 [Example 65, 1-((4-((3-(2-isopropyl-2H-tetrazol-5-yl)phenyl)amino)pyrrolo[2,1-f][1,2,4]triazin-5-yl)methyl)piperidine-4-carbonitrile]
1100	CC(C)n1nnc(-c2cccc(Nc3ncnn4ccc(CNCC#N)c34)c2)n1 [Example 66, 2-(((4-((3-(2-isopropyl-2H-tetrazol-5-yl)phenyl)amino)pyrrolo[2,1-f][1,2,4]triazin-5-yl)methyl)amino)acetonitrile]

Further lines, the compound ahead of its results:

SMILES	IC50 [nM]
CC(C)n1nnc(-c2cc(O)cc(Nc3ncnn4ccc(CN5CCC(N)CC5)c34)c2)n1 [Example 36, 3-((5-((4-aminopiperidin-1-yl)methyl)pyrrolo[2,1-f][1,2,4]triazin-4-yl)amino)-5-(2-isopropyl-2H-tetrazol-5-yl)phenol]	3.3
CC(C)c1nc(-c2ccc(Cl)c(Nc3ncnn4ccc(CN5CCC(N)CC5)c34)c2)no1 [Example 43, 5-((4-aminopiperidin-1-yl)methyl)-N-(2-chloro-5-(5-isopropyl-1,2,4-oxadiazol-3-yl)phenyl)pyrrolo[2,1-f][1,2,4]triazin-4-amine]	265
CNC1CCN(Cc2ccn3ncnc(Nc4cc(F)cc(-c5noc(C(C)C)n5)c4)c23)CC1 [Example 44, N-(3-fluoro-5-(5-isopropyl-1,2,4-oxadiazol-3-yl)phenyl)-5-((4-(methylamino)piperidin-1-yl)methyl)pyrrolo[2,1-f][1,2,4]triazin-4-amine]	10
CC(C)n1nnc(-c2cc(Nc3ncnn4ccc(CN5CCC(N)CC5)c34)ccc2F)n1 [Example 49, 5-((4-aminopiperidin-1-yl)methyl)-N-(4-fluoro-3-(2-isopropyl-2H-tetrazol-5-yl)phenyl)pyrrolo[2,1-f][1,2,4]triazin-4-amine]	21
CC(C)n1nnc(-c2cccc(Nc3ncnn4ccc(CN5[C@@H]6CC[C@H]5CC(O)C6)c34)c2)n1 (stereo partly drawn) [Example 59, (1R,5S)-8-((4-((3-(2-isopropyl-2H-tetrazol-5-yl)phenyl)amino)pyrrolo[2,1-f][1,2,4]triazin-5-yl)methyl)-8-azabicyclo[3.2.1]octan-3-ol]	128

same assay, conditions: ATP 22 μM; 3 hours at room temperature; listed as IC50 ranges

IC50 [nM]	SMILES
100 to 1000	CC(C)n1nnc(-c2cccc(Nc3ncnn4ccc(CN5CCN(C)CC5)c34)c2)n1 [Example 54, N-(3-(2-isopropyl-2H-tetrazol-5-yl)phenyl)-5-((4-methylpiperazin-1-yl)methyl)pyrrolo[2,1-f][1,2,4]triazin-4-amine]
100 to 1000	CC(C)c1nnc(-c2cccc(Nc3ncnn4ccc(CN5CCN(C)CC5)c34)c2)s1 [Example 55, N-(3-(5-isopropyl-1,3,4-thiadiazol-2-yl)phenyl)-5-((4-methylpiperazin-1-yl)methyl)pyrrolo[2,1-f][1,2,4]triazin-4-amine]
1000 to 5000	CC(C)c1nnc(-c2cccc(Nc3ncnn4ccc(CN5CCOCC5)c34)c2)s1 [Example 56, N-(3-(5-isopropyl-1,3,4-thiadiazol-2-yl)phenyl)-5-(morpholinomethyl)pyrrolo[2,1-f][1,2,4]triazin-4-amine]
10 to 100	CC(C)n1nnc(-c2cccc(Nc3ncnn4ccc(CN5CCOCC5)c34)c2)n1 [Example 57, N-(3-(2-isopropyl-2H-tetrazol-5-yl)phenyl)-5-(morpholinomethyl)pyrrolo[2,1-f][1,2,4]triazin-4-amine]
100 to 1000	CC(C)Oc1cc(Nc2ncnn3ccc(CN4CCC(N)CC4)c23)cc(-c2nnn(C(C)C)n2)c1 [Example 62, 5-((4-aminopiperidin-1-yl)methyl)-N-(3-isopropoxy-5-(2-isopropyl-2H-tetrazol-5-yl)phenyl)pyrrolo[2,1-f][1,2,4]triazin-4-amine]
100 to 1000	CNCc1ccn2ncnc(Nc3cccc(-c4nnn(C(C)C)n4)c3)c12 [Example 63, N-(3-(2-isopropyl-2H-tetrazol-5-yl)phenyl)-5-((methylamino)methyl)pyrrolo[2,1-f][1,2,4]triazin-4-amine]
100 to 1000	CC(C)n1nnc(-c2cccc(Nc3ncnn4ccc(CN5CC(C#N)C5)c34)c2)n1 [Example 64, 1-((4-((3-(2-isopropyl-2H-tetrazol-5-yl)phenyl)amino)pyrrolo[2,1-f][1,2,4]triazin-5-yl)methyl)azetidine-3-carbonitrile]

More lines, now with the values behind:

SMILES	IC50 [nM]
CC(C)c1nnc(-c2cccc(Nc3ncnn4ccc(CN5CCNCC5)c34)c2)s1 [Example 35, N-(3-(5-isopropyl-1,3,4-thiadiazol-2-yl)phenyl)-5-(piperazin-1-ylmethyl)pyrrolo[2,1-f][1,2,4]triazin-4-amine]	100 to 1000
CC(C)c1nc(-c2cc(O)cc(Nc3ncnn4ccc(CN5CCC(N)CC5)c34)c2)no1 [Example 37, 3-((5-((4-aminopiperidin-1-yl)methyl)pyrrolo[2,1-f][1,2,4]triazin-4-yl)amino)-5-(5-isopropyl-1,2,4-oxadiazol-3-yl)phenol]	1 to 10
CC(C)n1nnc(-c2ccc(O)c(Nc3ncnn4ccc(CN5CCC(N)CC5)c34)c2)n1 [Example 38, 2-((5-((4-aminopiperidin-1-yl)methyl)pyrrolo[2,1-f][1,2,4]triazin-4-yl)amino)-4-(2-isopropyl-2H-tetrazol-5-yl)phenol]	1 to 10
CNC1CCN(Cc2ccn3ncnc(Nc4cccc(-c5noc(C(C)C)n5)c4)c23)CC1 [Example 39, N-(3-(5-isopropyl-1,2,4-oxadiazol-3-yl)phenyl)-5-((4-(methylamino)piperidin-1-yl)methyl)pyrrolo[2,1-f][1,2,4]triazin-4-amine]	10 to 100
CNC1CCN(Cc2ccn3ncnc(Nc4cccc(-c5nnc(C(C)C)o5)c4)c23)CC1 [Example 40, N-(3-(5-isopropyl-1,3,4-oxadiazol-2-yl)phenyl)-5-((4-(methylamino)piperidin-1-yl)methyl)pyrrolo[2,1-f][1,2,4]triazin-4-amine]	10 to 100
CNC1CCN(Cc2ccn3ncnc(Nc4cccc(-c5noc(C(C)(C)C)n5)c4)c23)CC1 [Example 41, N-(3-(5-(tert-butyl)-1,2,4-oxadiazol-3-yl)phenyl)-5-((4-(methylamino)piperidin-1-yl)methyl)pyrrolo[2,1-f][1,2,4]triazin-4-amine]	10 to 100
CNC1CCN(Cc2ccn3ncnc(Nc4cccc(-c5nnn(C(C)C)n5)c4)c23)CC1 [Example 42, N-(3-(2-isopropyl-2H-tetrazol-5-yl)phenyl)-5-((4-(methylamino)piperidin-1-yl)methyl)pyrrolo[2,1-f][1,2,4]triazin-4-amine]	10 to 100
CC(C)c1nc(-c2cc(Cl)cc(Nc3ncnn4ccc(CN5CCC(N)CC5)c34)c2)no1 [Example 45, 5-((4-aminopiperidin-1-yl)methyl)-N-(3-chloro-5-(5-isopropyl-1,2,4-oxadiazol-3-yl)phenyl)pyrrolo[2,1-f][1,2,4]triazin-4-amine]	10 to 100
CC(C)c1nc(-c2cc(F)cc(Nc3ncnn4ccc(CN5CCC(N)CC5)c34)c2)no1 [Example 46, 5-((4-aminopiperidin-1-yl)methyl)-N-(3-fluoro-5-(5-isopropyl-1,2,4-oxadiazol-3-yl)phenyl)pyrrolo[1,2-f][1,2,4]triazin-4-amine]	10 to 100
NC1CCN(Cc2ccn3ncnc(Nc4cccc(-c5noc(C6CC6)n5)c4)c23)CC1 [Example 47, 5-((4-aminopiperidin-1-yl)methyl)-N-(3-(5-cyclopropyl-1,2,4-oxadiazol-3-yl)phenyl)pyrrolo[2,1-f][1,2,4]triazin-4-amine]	10 to 100
CC(C)c1nnc(-c2cccc(Nc3ncnn4ccc(CN5CC[C@@H](N)[C@H](O)C5)c34)c2)s1 [Example 48, (3R,4R)-4-amino-1-((4-((3-(5-isopropyl-1,3,4-thiadiazol-2-yl)phenyl)amino)pyrrolo[2,1-f][1,2,4]triazin-5-yl)methyl)piperidin-3-ol]	10 to 100
CC(C)n1nnc(-c2ccc(F)c(Nc3ncnn4ccc(CN5CCC(N)CC5)c34)c2)n1 [Example 50, 5-((4-aminopiperidin-1-yl)methyl)-N-(2-fluoro-5-(2-isopropyl-2H-tetrazol-5-yl)phenyl)pyrrolo[2,1-f][1,2,4]triazin-4-amine]	100 to 1000
CC(C)n1nnc(-c2cc(F)cc(Nc3ncnn4ccc(CN5CCC(N)CC5)c34)c2)n1 [Example 51, 5-((4-aminopiperidin-1-yl)methyl)-N-(3-fluoro-5-(2-isopropyl-2H-tetrazol-5-yl)phenyl)pyrrolo[2,1-f][1,2,4]triazin-4-amine]	1 to 10
CC(C)c1nc(-c2ccc(F)c(Nc3ncnn4ccc(CN5CCC(N)CC5)c34)c2)no1 [Example 52, 5-((4-aminopiperidin-1-yl)methyl)-N-(2-fluoro-5-(5-isopropyl-1,2,4-oxadiazol-3-yl)phenyl)pyrrolo[2,1-f][1,2,4]triazin-4-amine]	100 to 1000
CC(=O)NC1CCN(Cc2ccn3ncnc(Nc4cccc(-c5nnc(C(C)C)s5)c4)c23)CC1 [Example 53, N-(1-((4-((3-(5-isopropyl-1,3,4-thiadiazol-2-yl)phenyl)amino)pyrrolo[2,1-f][1,2,4]triazin-5-yl)methyl)piperidin-4-yl)acetamide]	10 to 100
CC(C)n1nnc(-c2cccc(Nc3ncnn4ccc(CNC5CC6CCC(C5)N6C)c34)c2)n1 (centres unmarked) [Example 58, N-(3-(2-isopropyl-2H-tetrazol-5-yl)phenyl)-5-((8-methyl-8-azabicyclo[3.2.1]octan-3-ylamino)methyl)pyrrolo[1,2-f][1,2,4]triazin-4-amine]	1000 to 5000
CC(C)n1nnc(-c2cccc(Nc3ncnn4ccc(CN5[C@@H]6CC[C@H]5CN(C)C6)c34)c2)n1 [Example 60, N-(3-(2-isopropyl-2H-tetrazol-5-yl)phenyl)-5-(((1R,5S)-3-methyl-3,8-diazabicyclo[3.2.1]octan-8-yl)methyl)pyrrolo[2,1-f][1,2,4]triazin-4-amine]	100 to 1000
